Source: the supplement of paper PMC5770543
± gives the standard deviation.

Key:
[1] = tested on: Plasmodium falciparum 3D7; assay: EC50 growth inhibition (60 h, SYBR Green); conditions: stage: ring-stage start
[2] = tested on: Toxoplasma gondii RH tachyzoites; assay: % growth inhibition vs DMSO (48 h luciferase); higher = more inhibition; conditions: 10 µM
[3] = tested on: Plasmodium falciparum 3D7; assay: R50 (50% reduction of ring formation, egress/invasion); higher = less potent
Method: (§1)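 P. falciparum asexual blood stages. EC50: sorbitol-synchronized 3D7 rings were treated with 2-fold dilutions from 10 µM for 60 h, with parasitemia read by SYBR Green I fluorescence; EC50 listed as 10 means not determined and is left out. Stage transition screen: ~40-42 hpi schizonts were treated at 1, 3 and 10 µM; new rings were counted by Hoechst flow cytometry and % inhibition is relative to DMSO controls (mean of 3 experiments). R50: concentration giving 50% reduction of new ring formation versus DMSO in 3D7, K1 and KH004-003, from flow cytometry after 12-20 h treatment of schizonts.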

[4] = tested on: Plasmodium falciparum K1 (chloroquine resistant); assay: as above
Method: as §1

[5] = tested on: Plasmodium falciparum KH004-003 (artemisinin resistant); assay: as above
Method: as §1

[6] = tested on: Plasmodium falciparum 3D7; assay: % inhibition of schizont-to-ring transition vs DMSO; higher = more inhibition
Summary of the method: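 Schizont-to-ring transition inhibition is the formation of new rings relative to vehicle controls. Tightly synchronised P. falciparum schizonts at about 40–42 hours post-invasion (1% parasitemia, 2.5% hematocrit, AlbuMAX-supplemented RPMI) were treated with compound at 1, 3 or 10 µM, alongside vehicle and positive controls. After glutaraldehyde fixation, Triton permeabilisation and Hoechst 33342 staining, at least 100,000 events were counted by flow cytometry, and values are the mean of three experiments.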

[7] = tested on: Toxoplasma gondii RH tachyzoites; assay: median egress time after A23187 ionophore; higher = stronger egress inhibition; conditions: 10 µM; pretreatment time: 24 h
Method: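 T. gondii RH tachyzoites expressing firefly luciferase were grown in HFF monolayers for 48 h with compound. % growth inhibition at 10 µM and EC50 (2-fold dilutions from 10 µM) were read by luminescence relative to 1% DMSO; EC50 listed as 10 (not determined, <80% inhibition) is left out. Plaque assays: 50 tachyzoites per well with 10 µM compound for 8-10 days, giving plaque count and area by crystal violet/ImageJ. Egress: median time to egress after 1 µM A23187 ionophore following 24 h of 10 µM compound (DMSO ~1.8 min; >10 = no egress within 10 min).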

[8] = molecular target: Toxoplasma gondii RH tachyzoites; assay: EC50 growth inhibition (48 h luciferase)
[9] = tested on: Toxoplasma gondii RH tachyzoites; assay: plaque count per well; higher = less inhibition; extreme values may be limits of the assay; conditions: 10 µM; 8-10 days
Summary of the method: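 Fifty T. gondii RH tachyzoites were added to each well of six-well plates holding confluent HFF monolayers preseeded with compound at 10 µM. Plates were left undisturbed for 8 to 10 days, then fixed with methanol and stained with crystal violet. Plaques were imaged and counted per well with ImageJ, with untreated and 1% DMSO-treated wells as controls. Plaque count per well reflects delayed-death inhibition of parasite growth.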
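Wherever % growth inhibition vs DMSO (48 h luciferase) is given: tested in triplicate wells of 96-well plates on confluent HFF monolayers, with 1% DMSO wells as negative control in four replicates.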

Row | Structure (SMILES) | EC50 growth inhibition [1] [nM] | % growth inhibition [2] [%] | R50 [3] [µM] | R50 [4] [µM] | R50 [5] [µM] | % inhibition of schizont-to-ring transition ([6]; 1 µM) [%] | % inhibition of schizont-to-ring transition ([6]; 3 µM) [%] | % inhibition of schizont-to-ring transition ([6]; 10 µM) [%] | median egress time [7] [min] | EC50 growth inhibition [8] [nM] | plaque count per well [9]
1 | Cc1cc(Nc2ccc(C)c(Cl)c2)n2nc(C(F)(F)F)nc2n1 | 12.5 | 23.8 ± 9.5 | 0.274 | 0.212 | 0.1 | 51.6 | 56.6 | 65.1 | 2.46 |  | 
2 | CN1CCN(c2ccc(Nc3c4ccccc4nc4ccccc34)cc2)CC1 | 59.9 | 100 ± 0.36 | 1.39 | 1.94 | 0.883 | 68.6 | 75.5 | 77.1 |  | 2320 | 
3 | CCOc1cc(Cl)c(C(C)NC(=O)c2ccccc2)cc1OCC (stereo not drawn) | 1450 | < 0 |  |  |  | 46.5 | 78.6 | 76.7 | 2.67 |  | 22
4 | CC(NCc1ccccc1)c1cc(Cl)ccc1O (stereo not drawn) | 801 | 14.9 ± 6 |  |  |  | 29.2 | 44.4 | 66.6 | 2.27 |  | 29
5 | CCOc1ccccc1CN1CCc2nc3cc(C(C)(C)C)nn3c(O)c2C1 | 2290 | < 0 |  |  |  | 34.2 | 42.8 | 49.8 | 1.47 |  | 28
6 | Cc1cc(Nc2ccc(OCc3ccccc3)cc2)nc2cc(O)ccc12 | 195 | 100.3 ± 0.21 | 0.97 | 0.291 | 0.702 | 64.2 | 71.9 | 69.8 |  | 2850 | 
7 | CCOC(=O)c1cn(CC)c2cc(N3CCCCC3)c(F)cc2c1=O | 670 | 67.3 ± 6.7 | 0.738 | 1.48 | 0.155 | 45.5 | 61.4 | 65.5 |  |  | 
8 | Cc1sc2ncnc(Sc3nc4ccccc4[nH]3)c2c1C | 860 | 95.05 ± 0.6 | 2.43 | 1.69 | 0.464 | 47.8 | 59.6 | 77.8 |  | 2950 | 
9 | Cc1cc(NC(=O)c2ccc(-c3ccccc3)cc2)no1 | 1810 | < 0 |  |  |  | 45.3 | 53.4 | 61.7 | 2.27 |  | 26
10 | CCOc1cccc(C(=O)Nc2ccc(-c3nc4ccccc4[nH]3)cc2)c1 |  | < 0 |  |  |  | 7.94 | 22.4 | 54.6 | 1.87 |  | 28
11 | Cc1c(C)n(CC(O)CNC2CCCCC2C)c2ccccc12 (stereo not drawn) | 2180 | < 0 |  |  |  | 14.4 | 32.3 | 64.2 | 3.07 |  | 23
12 | O=C(NC1CCCCC1)C(c1cccs1)N(CCc1ccccc1)C(=O)c1ccco1 (stereo not drawn) | 1720 | < 0 |  |  |  | 38.6 | 42 | 46.4 | 2.06 |  | 39
13 | CC(=O)Nc1nnc(SCc2c(C)cc(C(C)(C)C)cc2C)s1 |  | < 0 |  |  |  | 42.7 | 46.5 | 55.4 | 2.4 |  | 21
14 | OC(Cn1nnc2ccccc21)Cn1c2ccc(Br)cc2c2cc(Br)ccc21 (stereo not drawn) |  | 22.8 ± 3.4 | 2.87 | 1.23 | 0.102 | < 0 | 30.6 | 45.7 |  |  | 
15 | CCCC(c1nnnn1C1CCCCC1)N1CCN(C(=O)c2ccco2)CC1 (stereo not drawn) | 1470 | 9.52 ± 8.7 |  |  |  | 9.2 | 14.6 | 32.1 | 2.4 |  | 24
16 | CCOC(=O)C1=C(c2ccccc2)N=c2sc(=Cc3cc(C)n(-c4ccc(F)cc4)c3C)c(=O)n2C1c1cccc(OC)c1OC (stereo not drawn) | 493 | 92.3 ± 2 |  |  |  | 0.392 | 3.17 | 14.4 |  | 1500 | 
17 | CCCCNCC(O)(c1ccc(Cl)cc1)c1ccc(Cl)cc1 | 527 | 97.55 ± 0.55 |  |  |  | 8.52 | 48.1 | 70.3 |  | 6550 | 
18 | CC(C)(C)C(=O)Nc1ccc(C(=O)Nc2cccc(-c3nc4ccccc4[nH]3)c2)cc1 | 1820 | 88.4 ± 1.2 |  |  |  | 22.8 | 32.4 | 56.2 |  | 2080 | 
19 | CCOc1ccc2nc(C)cc(Nc3ccc(N(C)C)cc3)c2c1 | 410 | 98.02 ± 0.4 |  |  |  | 44.9 | 65.7 | 69.3 |  | 1440 | 
20 | COc1cccc(Nc2nc(NCCO)c3ccccc3n2)c1 | 456 | 97.5 ± 1.6 |  |  |  | 39.7 | 60.8 | 65.6 |  | 1090 | 
21 | O=C(Nc1ccc(F)c(Cl)c1)Nc1ccc(Cl)c(Cl)c1 | 3980 | 100.1 ± 0.21 |  |  |  | 36.5 | 55.4 | 77.4 |  | 346 | 
22 | COCCNCC(O)Cn1c2ccc(Cl)cc2c2cc(Cl)ccc21 (stereo not drawn) | 700 | 99.95 ± 0.13 |  |  |  | 5.35 | 32.1 | 67.1 |  | 6290 | 
23 | FC(F)(F)c1cccc(Nc2nc3ccccc3nc2Nc2cccc(C(F)(F)F)c2)c1 | 6400 | 99.49 ± 0.16 |  |  |  | < 0 | 15.6 | 42.7 |  | 46.4 | 
24 | COc1ccc2sc(N(Cc3cccnc3)C(=O)c3ccc(C#N)cc3)nc2c1 | 6590 | < 0 |  |  |  | 35.3 | 39.1 | 51.7 | > 10 |  | 21
25 | Cc1ccc2nc(C)cc(Nc3cccc(C(F)(F)F)c3)c2c1 | 894 | 99.29 ± 0.18 |  |  |  | 2.29 | 31.8 | 62.9 |  | 465 | 
